In patent US20260109707A1, “HETEROBIFUNCTIONAL COMPOUNDS AND METHODS OF TREATING DISEASE” (Halda Therapeutics OpCo. Inc., priority 2022, published 2026):
Read-outs that look alike come from different tables or passages of the source.

Tests used:
[1] = tested on: VCaP cells; test: Cellular growth inhibition assay for VCaP cells (CellTiter-Glo, 72 hours); format: cell-based, human
In short: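 Luminescent viability signal after 72 h of compound exposure gave GI50 values by four-parameter nonlinear regression. Compounds were added in 0.5% DMSO to cells plated 24 h earlier at 5000/well in DMEM containing 10% FBS.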

[2] = tested on: T-Rex 293 cell line SC3 cells having increased expression of androgen receptor protein due to exposure to doxycycline; test: Cellular growth inhibition assay, T-Rex 293 SC3 cells with doxycycline (CellTiter-Glo, 72 hours); format: cell-based; conditions: T-Rex 293 SC3 cells with increased androgen receptor expression due to doxycycline (10 ng/mL)
In short: (§1)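 Doxycycline (10 ng/mL) was either included or omitted to toggle wild-type androgen receptor expression in SC3 cells, a T-Rex 293 clone, grown in stripped-serum, phenol red-free medium. After 72 hours with compound, viable cells were quantified by CellTiter-Glo 2.0.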

[3] = tested on: T-Rex 293 cell line SC3 cells lacking increased expression of androgen receptor protein; test: Cellular growth inhibition assay, T-Rex 293 SC3 cells without doxycycline (CellTiter-Glo, 72 hours); format: cell-based; conditions: T-Rex 293 cell line SC3 cells not exposed to doxycycline (lacking increased androgen receptor expression)
In short: as §1

[4] = tested on: T47D cells; test: Cellular growth inhibition assay for T47D cells (CellTiter-Glo, 72 hours); format: cell-based, human; conditions: 72 hours treatment
In short: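 Growth inhibition as GI50, fitted with four parameters to CellTiter-Glo luminescence after 72 h of compound exposure (0.5% DMSO). Cells were T47D, grown in insulin-supplemented (0.2 units/mL) DMEM with 10% FBS and treated one day post-seeding.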

| SMILES | GI50 ([1]; Homo sapiens, VCaP, 72 h) [nM] | GI50 ([2]; 72 h) [nM] | GI50 [3] [nM] | GI50 ([4]; Homo sapiens, T47D, 72 h) [nM] | GI50 [4] [nM] | GI50 [1] [nM] | GI50 [2] [nM] | GI50 ([3]; 72 h) [nM] |
| --- | --- | --- | --- | --- | --- | --- | --- | --- |
| Cc1sc2c(c1C)C(c1ccc(O[C@@H]3CC[C@]4(CCCN(c5ccc(C(=O)N[C@H]6CC[C@H](Oc7ccc(C#N)c(Cl)c7)CC6)nn5)C4)C3)nc1)=N[C@@H](Cc1ncco1)c1nnc(C)n1-2 [I-284] | < 500 | < 500 | < 500 | 500 to 1500 |  |  |  |  |
| Cc1sc2c(c1C)C(c1ccc(O[C@@H]3CC[C@@]4(CCCN(c5ccc(C(=O)N[C@H]6CC[C@H](Oc7ccc(C#N)c(Cl)c7)CC6)nn5)C4)C3)nc1)=N[C@@H](Cc1ncco1)c1nnc(C)n1-2 [I-285] | < 500 | < 500 | > 3000 |  | 1500 to 3000 |  |  |  |
| Cc1sc2c(c1C)C(c1ccc(O[C@@H]3CC[C@]4(CCCN(c5ccc(C(=O)N[C@H]6CC[C@H](Oc7ccc(C#N)c(Cl)c7)CC6)nn5)C4)C3)nc1)=N[C@@H](Cc1ncco1)c1nnc(C)n1-2 [I-286] |  |  | > 3000 |  | 500 to 1500 | < 500 | < 500 |  |
| Cc1sc2c(c1C)C(c1ccc(O[C@@H]3CC[C@@]4(CCCN(c5ccc(C(=O)N[C@H]6CC[C@H](Oc7ccc(C#N)c(Cl)c7)CC6)nn5)C4)C3)nc1)=N[C@@H](Cc1ncco1)c1nnc(C)n1-2 [I-287] |  |  | < 500 |  | 500 to 1500 | < 500 | < 500 |  |
| Cc1sc2c(c1C)C(c1ccc(C[C@@H]3CC[C@]4(C3)CN(c3ccc(C(=O)N[C@H]5CC[C@H](Oc6ccc(C#N)c(Cl)c6)CC5)nn3)CCO4)cc1)=NC(Cc1ncco1)c1nnc(C)n1-2 (stereo partly shown) [I-288] | < 500 | < 500 |  | < 500 |  |  |  | < 500 |
| Cc1sc2c(c1C)C(c1ccc(CNC(=O)NCc3ccc(C(=O)N[C@H]4CC[C@H](Oc5ccc(C#N)c(Cl)c5)CC4)nn3)cc1)=N[C@@H](Cc1ncco1)c1nnc(C)n1-2 [I-289] | 1500 to 3000 | < 500 |  | 1500 to 3000 |  |  |  | > 3000 |
| Cc1sc2c(c1C)C(c1ccc(C(=O)N3CCN(Cc4ccc(C(=O)N[C@H]5CC[C@H](Oc6ccc(C#N)c(Cl)c6)CC5)nn4)CC3)cc1)=N[C@@H](Cc1ncco1)c1nnc(C)n1-2 [I-290] | > 3000 | > 3000 |  | > 3000 |  |  |  | > 3000 |
| Cc1sc2c(c1C)C(c1ccc(C(=O)N3CCN(Cc4ccc(C(=O)N[C@H]5CC[C@H](Oc6ccc(C#N)c(Cl)c6)CC5)nn4)CC3)cc1)=N[C@H](Cc1ncco1)c1nnc(C)n1-2 [I-291] | > 3000 | < 500 |  | > 3000 |  |  |  | > 3000 |
| Cc1sc2c(c1C)C(c1ccc(N3CCC(C(=O)NCc4ccc(C(=O)N[C@H]5CC[C@H](Oc6ccc(C#N)c(Cl)c6)CC5)nn4)CC3)cc1)=N[C@@H](Cc1ncco1)c1nnc(C)n1-2 [I-292] | < 500 | < 500 |  | < 500 |  |  |  | 500 to 1500 |
| Cc1sc2c(c1C)C(c1ccc(CCNC(=O)NCc3ccc(C(=O)N[C@H]4CC[C@H](Oc5ccc(C#N)c(Cl)c5)CC4)nn3)cc1)=N[C@@H](Cc1ncco1)c1nnc(C)n1-2 [I-293] | < 500 | < 500 |  | 500 to 1500 |  |  |  | > 3000 |
| Cc1sc2c(c1C)C(c1ccc(N3CCC[C@H](C(=O)NCc4ccc(C(=O)N[C@H]5CC[C@H](Oc6ccc(C#N)c(Cl)c6)CC5)nn4)C3)cc1)=N[C@@H](Cc1ncco1)c1nnc(C)n1-2 [I-294] | < 500 | < 500 |  | < 500 |  |  |  | > 3000 |
| Cc1sc2c(c1C)C(c1ccc(N3CCC[C@H](C(=O)NCc4ccc(C(=O)N[C@H]5CC[C@H](Oc6ccc(C#N)c(Cl)c6)CC5)nn4)C3)cc1)=N[C@H](Cc1ncco1)c1nnc(C)n1-2 [I-295] | > 3000 | 500 to 1500 |  | 1500 to 3000 |  |  |  | > 3000 |
| Cc1sc2c(c1C)C(c1ccc([C@H]3CCCCN3C(=O)[C@H]3CCCN(c4ccc(C(=O)N[C@H]5CC[C@H](Oc6ccc(C#N)c(Cl)c6)CC5)nn4)C3)cc1)=N[C@@H](Cc1ncco1)c1nnc(C)n1-2 [I-296] | < 500 | < 500 |  | 500 to 1500 |  |  |  | > 3000 |
| Cc1sc2c(c1C)C(c1ccc([C@@H]3CCCCN3C(=O)[C@H]3CCCN(c4ccc(C(=O)N[C@H]5CC[C@H](Oc6ccc(C#N)c(Cl)c6)CC5)nn4)C3)cc1)=N[C@@H](Cc1ncco1)c1nnc(C)n1-2 [I-297] | < 500 | < 500 |  | 500 to 1500 |  |  |  | > 3000 |
| Cc1sc2c(c1C)C(c1ccc(CN3CCO[C@@H](CNc4ccc(C(=O)N[C@H]5CC[C@H](Oc6ccc(C#N)c(Cl)c6)CC5)nn4)C3)cc1)=N[C@@H](Cc1ncco1)c1nnc(C)n1-2 [I-298] | < 500 | < 500 |  | < 500 |  |  |  | < 500 |
| Cc1sc2c(c1C)C(c1ccc(CN(C)C(=O)CN(C)c3ccc(C(=O)N[C@H]4CC[C@H](Oc5ccc(C#N)c(Cl)c5)CC4)nn3)cc1)=N[C@@H](Cc1ncco1)c1nnc(C)n1-2 [I-299] | < 500 | 1500 to 3000 |  | 1500 to 3000 |  |  |  | > 3000 |
| Cc1sc2c(c1C)C(c1ccc(CNC(=O)Cc3ccc(C(=O)N[C@H]4CC[C@H](Oc5ccc(C#N)c(Cl)c5)CC4)nn3)cc1)=N[C@@H](Cc1ncco1)c1nnc(C)n1-2 [I-300] | < 500 | 500 to 1500 |  | 500 to 1500 |  |  |  | > 3000 |
| Cc1sc2c(c1C)C(c1ccc(N3CCC[C@H](C(=O)N4CCC[C@H](c5ccc(C(=O)N[C@H]6CC[C@H](Oc7ccc(C#N)c(Cl)c7)CC6)nn5)C4)C3)cc1)=N[C@@H](Cc1ncco1)c1nnc(C)n1-2 [I-301] | < 500 | < 500 |  | < 500 |  |  |  | < 500 |
| Cc1sc2c(c1C)C(c1ccc(N3CCC[C@H](C(=O)N4CCC[C@@H](c5ccc(C(=O)N[C@H]6CC[C@H](Oc7ccc(C#N)c(Cl)c7)CC6)nn5)C4)C3)cc1)=N[C@@H](Cc1ncco1)c1nnc(C)n1-2 [I-302] | 500 to 1500 | < 500 |  | < 500 |  |  |  | < 500 |
| Cc1sc2c(c1C)C(c1ccc(N3CCC[C@H](C(=O)N4CCC[C@H](c5ccc(C(=O)N[C@H]6CC[C@H](Oc7ccc(C#N)c(Cl)c7)CC6)nn5)C4)C3)cc1)=N[C@H](Cc1ncco1)c1nnc(C)n1-2 [I-303] | > 3000 | > 3000 |  | > 3000 |  |  |  | > 3000 |
| Cc1sc2c(c1C)C(c1ccc(N3CCC[C@H](C(=O)N4CCC[C@@H](c5ccc(C(=O)N[C@H]6CC[C@H](Oc7ccc(C#N)c(Cl)c7)CC6)nn5)C4)C3)cc1)=N[C@H](Cc1ncco1)c1nnc(C)n1-2 [I-304] | > 3000 | > 3000 |  | > 3000 |  |  |  | > 3000 |
| Cc1sc2c(c1C)C(c1ccc(CCCN(C)C(=O)c3ccc(C(=O)N[C@H]4CC[C@H](Oc5ccc(C#N)c(Cl)c5)CC4)nn3)cc1)=N[C@@H](Cc1ncco1)c1nnc(C)n1-2 [I-305] | < 500 | < 500 |  | < 500 |  |  |  | < 500 |
| Cc1sc2c(c1C)C(c1ccc(C(=O)N3CCC(N(C)c4ccc(C(=O)N[C@H]5CC[C@H](Oc6ccc(C#N)c(Cl)c6)CC5)nn4)CC3)cc1)=N[C@@H](Cc1ncco1)c1nnc(C)n1-2 [I-306] | > 3000 | > 3000 |  | 1500 to 3000 |  |  |  | > 3000 |
| Cc1sc2c(c1C)C(c1ccc(C(=O)N3CCC(N(C)c4ccc(C(=O)N[C@H]5CC[C@H](Oc6ccc(C#N)c(Cl)c6)CC5)nn4)CC3)cc1)=N[C@H](Cc1ncco1)c1nnc(C)n1-2 [I-307] | 1500 to 3000 | < 500 |  | 1500 to 3000 |  |  |  | 500 to 1500 |
| Cc1sc2c(c1C)C(c1ccc(CCC[C@@H]3CCCN(c4ccc(C(=O)N[C@H]5CC[C@H](Oc6ccc(C#N)c(Cl)c6)CC5)nn4)C3)cc1)=N[C@@H](C)c1nnc(C)n1-2 [I-308] | < 500 | < 500 |  | 500 to 1500 |  |  |  | > 3000 |
